# Results: US9320276B2, “N-hetarylmethyl pyrazolylcarboxamides” (BAYER INTELLECTUAL PROPERTY GMBH, priority 2010, dated 2016)
# Assays:
# Alternaria solani = experiment: in vivo preventive test on Alternaria solani (tomato); conditions: 500 ppm of active ingredient, evaluated 7 days after inoculation
# Experimental: Solvent: 49 parts by weight of N,N-dimethylformamide Emulsifier: 1 part by weight of Alkylarylpolyglycolether To produce a suitable preparation of active compound, 1 part by weight of active compound is mixed with the stated amounts of solvent and emulsifier, and the concentrate is diluted with water to the desired concentration. To test for preventive activity, young plants are sprayed with the preparation of active compound at the stated rate of application. One day after this treatment, the plants are inoculated with an aqueous spore suspension of Alternaria solani. The plants remain for one day in an incubation cabinet at approximately 22° C. and a relative atmospheric humidity of 100%. Then the plants are placed in an incubation cabinet at approximately 20° C. and a relative atmospheric humidity of 96%. The test is evaluated 7 days after the inoculation. 0% means an efficacy which corresponds to that of the untreated control while an efficacy of 100% means that no disease is observed.
# [1] = logP by HPLC on reversed-phase column (EEC Directive 79/831 Annex V.A8); assay type: physicochemical; conditions: 40° C., 0.1% aqueous formic acid and acetonitrile, linear gradient 10% to 90% acetonitrile
# Experimental: In table 1, the logP values were determined in accordance with EEC Directive 79/831 Annex V.A8 by HPLC (High Performance Liquid Chromatography) on a reversed-phase column (C 18), using the method described below: Temperature: 40° C.; Mobile phases: 0.1% aqueous formic acid and acetonitrile; linear gradient from 10% acetonitrile to 90% acetonitrile. Calibration was carried out using unbranched alkan-2-ones (comprising 3 to 16 carbon atoms) with known logP values (determination of the logP values by the retention times using linear interpolation between two successive alkanones). lambda-max-values were determined using UV-spectra from 200 nm to 400 nm and the peak values of the chromatographic signals.
# Pyrenophora teres = experiment: in vivo preventive test on Pyrenophora teres (barley); conditions: 500 ppm of active ingredient, evaluated 7-9 days after inoculation
# Experimental: Solvent: 49 parts by weight of N,N-dimethylformamide Emulsifier: 1 part by weight of alkylaryl polyglycol ether To produce a suitable preparation of active compound, 1 part by weight of active compound is mixed with the stated amounts of solvent and emulsifier, and the concentrate is diluted with water to the desired concentration. To test for preventive activity, young plants are sprayed with the preparation of active compound at the stated rate of application. One day after this treatment, the plants are inoculated with an aqueous spore suspension of Pyrenophora teres. The plants remain for 48 hours in an incubation cabinet at 22° C. and a relative atmospheric humidity of 100%. Then the plants are placed in a greenhouse at a temperature of approximately 20° C. and a relative atmospheric humidity of approximately 80%. The test is evaluated 7-9 days after the inoculation. 0% means an efficacy which corresponds to that of the untreated control while an efficacy of 100% means that no disease is observed.
# [2] = HPLC on reversed-phase column (C 18)
# [3] = HPLC, reversed-phase column (C 18)
Structure (SMILES),Efficacy (Alternaria solani) [%],"logP [1, 2]",Efficacy (Pyrenophora teres) [%],"logP [1, 3]"
Cn1nc(C(F)F)c(C(=O)NC2CCCc3sccc32)c1Cl (stereo not drawn) [Example 103],94,2.90,,
CC(NC(=O)c1c(C(F)F)nn(C)c1Cl)c1cc2ccccc2s1 (racemic) [Example 81],100,3.13,90,
CN(Cc1cc(CC(C)(C)C)no1)C(=O)c1c(C(F)F)nn(C)c1F [Example 105],95,2.75,100,
Cn1nc(C(F)F)c(C(=O)N(Cc2csc3ccccc23)C2CC2)c1Cl [Example 89],80,3.41,95,
CN(Cc1cnn(-c2ccccc2)c1)C(=O)c1c(C(F)F)nn(C)c1F [Example 109],95,2.26,100,
CN(Cc1ccc2nsnc2c1)C(=O)c1c(C(F)F)nn(C)c1F [Example 100],95,2.17,,
CC(c1cc(Cl)sc1Cl)N(C(=O)c1c(C(F)F)nn(C)c1Cl)C1CC1 (stereo not drawn) [Example 127],95,4.24,95,
Cc1ccsc1CN(C(=O)c1c(C(F)F)nn(C)c1Cl)C1CCCC1 [Example 37],80,3.61,,
Cn1nc(C(F)F)c(C(=O)N(Cc2cc(Cl)nc3ccccc23)C2CC2)c1Cl [Example 139],,3.09,90,
CC(c1csc2ccccc12)N(C(=S)c1c(C(F)F)nn(C)c1F)C1CC1 (racemic) [Example 86],70,4.44,100,
Cn1nc(C(F)F)c(C(=O)N(Cc2cc(CC(C)(C)C)no2)C2CC2)c1F [Example 106],95,3.17,100,
Cn1nc(C(F)F)c(C(=O)N(Cc2cccnc2)C2CCCCCC2)c1Cl [Example 15],,1.76,75,
Cn1nc(C(F)F)c(C(=O)N(Cc2nc3ccccc3s2)C2CC2)c1F [Example 98],80,2.68,100,
Cc1ccsc1CN(C(=O)c1c(C(F)F)nn(C)c1Cl)C1CC1 [Example 39],95,3.02,100,
CN(Cc1nc(-c2ccccc2)no1)C(=O)c1c(C(F)F)nn(C)c1F [Example 114],95,2.58,95,
Cc1ccoc1CN(C)C(=O)c1c(C(F)F)nn(C)c1Cl [Example 21],,2.32,80,
Cn1nc(C(F)F)c(C(=O)N(Cc2ccco2)C2CC2)c1F [Example 5],80,2.32,95,
CN(Cc1cc(-c2cc(F)c(F)c(F)c2)no1)C(=O)c1c(C(F)F)nn(C)c1F [Example 164],,3.11,100,
Cn1nc(C(F)F)c(C(=O)N(Cc2cnc(Cl)cc2Cl)C2CC2)c1F [Example 118],95,2.73,100,
Cn1nc(C(F)F)c(C(=O)N(Cc2cccc3ccsc23)C2CC2)c1Cl [Example 94],95,3.31,95,
Cn1nc(C(F)F)c(C(=O)NC2(c3cc4ccccc4o3)CCCC2)c1F [Example 75],70,3.52,89,
Cn1nc(C(F)F)c(C(=O)N(Cc2cc(-c3ccccc3)no2)C2CC2)c1Cl [Example 112],,3.04,95,
Cc1nc(-c2ccc(Cl)cc2)sc1CN(C(=O)c1c(C(F)F)nn(C)c1F)C1CC1 [Example 167],90,,100,3.85
Cn1nc(C(F)F)c(C(=O)N(Cc2cccs2)C2CC2)c1Cl [Example 31],,2.73,100,
Cn1nc(C(F)F)c(C(=O)N(Cc2csc3ccc(Cl)cc23)C2CC2)c1Cl [Example 144],,3.83,100,
CN(Cc1sc2ccccc2c1Cl)C(=O)c1c(C(F)F)nn(C)c1F [Example 142],80,3.48,100,

Structure (SMILES),Efficacy (Alternaria solani) [%],"logP [1, 2]",Efficacy (Pyrenophora teres) [%],"logP [1, 3]"
Cn1nc(C(F)F)c(C(=O)N(Cc2cc(Cl)nc3ccccc23)C2CC2)c1F [Example 138],,2.92,100,
Cn1nc(C(F)F)c(C(=O)N(Cc2cc(-c3ccc(Cl)cc3)no2)C2CC2)c1F [Example 153],90,3.46,100,
CC(c1cnc(Cl)c(Cl)c1)N(C(=O)c1c(C(F)F)nn(C)c1Cl)C1CC1 (stereo not drawn) [Example 120],90,3.27,100,
Cn1nc(C(F)F)c(C(=O)N(Cc2ccnc3cc(Cl)cc(Cl)c23)C2CC2)c1Cl [Example 162],,3.57,94,
CN(Cc1cscc1Br)C(=O)c1c(C(F)F)nn(C)c1F [Example 133],70,2.52,90,
Cn1nc(C(F)F)c(C(=O)N(Cc2cc(-c3cc(F)c(F)c(F)c3)no2)C2CC2)c1F [Example 165],100,3.53,100,
Cn1nc(C(F)F)c(C(=O)NC2CCCc3sccc32)c1F (stereo not drawn) [Example 104],94,2.73,,
Cn1nc(C(F)F)c(C(=O)NCc2csc3ccccc23)c1F [Example 88],78,2.73,,
CN(Cc1cnn(-c2ccccc2)c1)C(=O)c1c(C(F)F)nn(C)c1Cl [Example 108],90,2.40,,
Cn1nc(C(F)F)c(C(=O)N(Cc2c(Cl)cncc2Cl)C2CC2)c1Cl [Example 116],90,2.64,95,
Cn1nc(C(F)F)c(C(=O)NCc2cc3ccccc3s2)c1Cl [Example 83],94,2.92,,
CC(c1cnc(Cl)c(Cl)c1)N(C(=O)c1c(C(F)F)nn(C)c1F)C1CC1 (stereo not drawn) [Example 121],95,3.11,100,
CC(NC(=O)c1c(C(F)F)nn(C)c1F)c1cc2ccccc2s1 (racemic) [Example 82],100,2.98,90,
CSc1ncc(C(C(C)C)N(C)C(=O)c2c(C(F)F)nn(C)c2F)c(C(F)(F)F)n1 (stereo not drawn) [Example 157],70,3.46,90,
Cc1ccsc1CN(C)C(=O)c1c(C(F)F)nn(C)c1F [Example 42],70,2.44,,
CC(C)N(Cc1cnn(-c2ccc(Cl)cc2)c1)C(=O)c1c(C(F)F)nn(C)c1Cl [Example 151],,3.39,75,
CN(Cc1cc(-c2ccccc2)no1)C(=O)c1c(C(F)F)nn(C)c1F [Example 110],,2.51,100,
Cc1c(CN(C(=O)c2c(C(F)F)nn(C)c2Cl)C2CC2)sc2ccccc12 [Example 123],,3.74,90,
Cn1nc(C(F)F)c(C(=O)N(Cc2cc3ccccc3o2)C2CC2)c1Cl [Example 72],,3.21,90,
Cn1nc(C(F)F)c(C(=O)N(Cc2cc(CC(C)(C)C)no2)C2CC2)c1Cl [Example 107],,3.31,80,
Cc1cc(C(C)N(C(=O)c2c(C(F)F)nn(C)c2F)C2CC2)c(C)o1 (stereo not drawn) [Example 35],,3.21,100,
CCN(Cc1nonc1C)C(=O)c1c(C(F)F)nn(C)c1F [Example 28],90,2.05,,
Cn1nc(C(F)F)c(C(=O)N(Cc2cc(-c3cc(F)c(F)c(F)c3)no2)C2CC2)c1Cl [Example 166],,,90,3.64
CC(C)Oc1ccc(CN(C)C(=O)c2c(C(F)F)nn(C)c2F)cn1 [Example 102],,2.45,70,
Cn1nc(C(F)F)c(C(=O)N(Cc2cc(C(F)(F)F)nc3ccccc23)C2CC2)c1Cl [Example 160],,3.72,90,
